The NIST ThermoML archive (doi:10.1021/je4005883)
± gives the expanded uncertainty stated by the source.

How the values were obtained:
[1] = wn = mass fraction of the nth substance listed; settings: 101.33 kPa, Liquid; for speed of sound: Pulse-echo method; for mass density: Vibrating tube method
[2] = 298.15 K; 101.33 kPa; Liquid; Vibrating tube method

Question: Which results are given for `CCN1CCCC1=O` [1-ethyl-2-pyrrolidinone] + NCCO?
Answer: speed of sound ([1]; 293.15 K, w2 = 0.7): 1653.3 ± 2.6 m/s; speed of sound ([1]; 293.15 K, w2 = 0.8): 1679.7 ± 2.6 m/s; speed of sound ([1]; 293.15 K, w2 = 0.9): 1706.9 ± 2.7 m/s; mass density ([1]; 293.15 K, w2 = 0.7): 1009.04 ± 0.66 kg/m3; mass density ([1]; 293.15 K, w2 = 0.8): 1011.7 ± 0.64 kg/m3; mass density ([1]; 293.15 K, w2 = 0.9): 1014.01 ± 0.63 kg/m3; viscosity ([1]; 293.15 K, w2 = 0.7): 12.25 ± 0.24 mPa·s; viscosity ([1]; 293.15 K, w2 = 0.8): 16.01 ± 0.3 mPa·s; viscosity ([1]; 293.15 K, w2 = 0.9): 19.95 ± 0.36 mPa·s; speed of sound ([1]; 303.15 K, w2 = 0.7): 1618.6 ± 2.6 m/s; speed of sound ([1]; 303.15 K, w2 = 0.8): 1645.9 ± 2.6 m/s; speed of sound ([1]; 303.15 K, w2 = 0.9): 1674 ± 2.7 m/s; mass density ([1]; 303.15 K, w2 = 0.7): 1000.7 ± 0.66 kg/m3; mass density ([1]; 303.15 K, w2 = 0.8): 1003.49 ± 0.64 kg/m3; mass density ([1]; 303.15 K, w2 = 0.9): 1005.95 ± 0.62 kg/m3; viscosity ([1]; 303.15 K, w2 = 0.7): 8.104 ± 0.17 mPa·s; viscosity ([1]; 303.15 K, w2 = 0.8): 10.27 ± 0.2 mPa·s; viscosity ([1]; 303.15 K, w2 = 0.9): 12.48 ± 0.23 mPa·s; speed of sound ([1]; 313.15 K, w2 = 0.7): 1584 ± 2.6 m/s; speed of sound ([1]; 313.15 K, w2 = 0.8): 1611.7 ± 2.6 m/s; speed of sound ([1]; 313.15 K, w2 = 0.9): 1641.2 ± 2.7 m/s; mass density ([1]; 313.15 K, w2 = 0.7): 992.31 ± 0.66 kg/m3; mass density ([1]; 313.15 K, w2 = 0.8): 995.23 ± 0.63 kg/m3; mass density ([1]; 313.15 K, w2 = 0.9): 997.83 ± 0.62 kg/m3; viscosity ([1]; 313.15 K, w2 = 0.7): 5.666 ± 0.12 mPa·s; viscosity ([1]; 313.15 K, w2 = 0.8): 6.967 ± 0.14 mPa·s; viscosity ([1]; 313.15 K, w2 = 0.9): 8.35 ± 0.17 mPa·s; speed of sound ([1]; 323.15 K, w2 = 0.7): 1549.5 ± 2.6 m/s; speed of sound ([1]; 323.15 K, w2 = 0.8): 1578.2 ± 2.6 m/s; speed of sound ([1]; 323.15 K, w2 = 0.9): 1608 ± 2.7 m/s; mass density ([1]; 323.15 K, w2 = 0.7): 983.87 ± 0.65 kg/m3; mass density ([1]; 323.15 K, w2 = 0.8): 986.93 ± 0.63 kg/m3; mass density ([1]; 323.15 K, w2 = 0.9): 989.65 ± 0.61 kg/m3; viscosity ([1]; 323.15 K, w2 = 0.7): 4.173 ± 0.095 mPa·s; viscosity ([1]; 323.15 K, w2 = 0.8): 5.017 ± 0.11 mPa·s; viscosity ([1]; 323.15 K, w2 = 0.9): 5.863 ± 0.13 mPa·s

Question: Which speed of sound ([1]; 293.15 K, w2 = 0.7) does the source give for `CCN1CCCC1=O` [1-ethyl-2-pyrrolidinone] + O here?
Answer: The speed of sound was 1671.7 ± 2.6 m/s.

Question: And the speed of sound ([1]; 293.15 K, w2 = 0.8)?
Answer: The speed of sound was 1620 ± 2.6 m/s.

Question: What about the speed of sound ([1]; 293.15 K, w2 = 0.9) of the same compound?
Answer: Its speed of sound is 1555.7 ± 2.5 m/s.

Question: And the mass density ([1]; 293.15 K, w2 = 0.7)?
Answer: Its mass density is 1013.82 ± 0.58 kg/m3.

Question: And the mass density ([1]; 293.15 K, w2 = 0.8)?
Answer: Its mass density is 1007.67 ± 0.57 kg/m3.

Question: What about the mass density ([1]; 293.15 K, w2 = 0.9) of the same compound?
Answer: Its mass density is 1002.08 ± 0.57 kg/m3.

Question: What about the viscosity ([1]; 293.15 K, w2 = 0.7) of the same compound?
Answer: Its viscosity is 2.857 ± 0.065 mPa·s.

Question: And the viscosity ([1]; 293.15 K, w2 = 0.8)?
Answer: Its viscosity is 2.068 ± 0.048 mPa·s.

Question: What about the viscosity ([1]; 293.15 K, w2 = 0.9) of the same compound?
Answer: The viscosity was 1.474 ± 0.035 mPa·s.

Question: And the speed of sound ([1]; 303.15 K, w2 = 0.7)?
Answer: Its speed of sound is 1658.9 ± 2.6 m/s.

Question: And the speed of sound ([1]; 303.15 K, w2 = 0.8)?
Answer: The speed of sound was 1620 ± 2.6 m/s.

Question: What about the speed of sound ([1]; 303.15 K, w2 = 0.9) of the same compound?
Answer: The speed of sound was 1568.9 ± 2.5 m/s.

Question: And the mass density ([1]; 303.15 K, w2 = 0.7)?
Answer: The mass density was 1008.12 ± 0.58 kg/m3.

Question: And the mass density ([1]; 303.15 K, w2 = 0.8)?
Answer: The mass density was 1003.22 ± 0.57 kg/m3.

Question: And the mass density ([1]; 303.15 K, w2 = 0.9)?
Answer: The mass density was 998.33 ± 0.57 kg/m3.

Question: And the viscosity ([1]; 303.15 K, w2 = 0.7)?
Answer: The viscosity was 2.03 ± 0.05 mPa·s.

Question: What about the viscosity ([1]; 303.15 K, w2 = 0.8) of the same compound?
Answer: The viscosity was 1.52 ± 0.04 mPa·s.

Question: And the viscosity ([1]; 303.15 K, w2 = 0.9)?
Answer: Its viscosity is 1.123 ± 0.027 mPa·s.

Question: And the speed of sound ([1]; 313.15 K, w2 = 0.7)?
Answer: Its speed of sound is 1644 ± 2.6 m/s.

Question: What about the speed of sound ([1]; 313.15 K, w2 = 0.8) of the same compound?
Answer: The speed of sound was 1616.3 ± 2.6 m/s.

Question: What about the speed of sound ([1]; 313.15 K, w2 = 0.9) of the same compound?
Answer: Its speed of sound is 1576.8 ± 2.5 m/s.

Question: And the mass density ([1]; 313.15 K, w2 = 0.7)?
Answer: The mass density was 1001.9 ± 0.58 kg/m3.

Question: What about the mass density ([1]; 313.15 K, w2 = 0.8) of the same compound?
Answer: Its mass density is 998.11 ± 0.57 kg/m3.

Question: And the mass density ([1]; 313.15 K, w2 = 0.9)?
Answer: The mass density was 994.6 ± 0.57 kg/m3.

Question: And the viscosity ([1]; 313.15 K, w2 = 0.7)?
Answer: Its viscosity is 1.522 ± 0.036 mPa·s.

Question: What about the viscosity ([1]; 313.15 K, w2 = 0.8) of the same compound?
Answer: The viscosity was 1.176 ± 0.029 mPa·s.

Question: And the viscosity ([1]; 313.15 K, w2 = 0.9)?
Answer: Its viscosity is 0.891 ± 0.022 mPa·s.

Question: What about the speed of sound ([1]; 323.15 K, w2 = 0.7) of the same compound?
Answer: Its speed of sound is 1627.1 ± 2.6 m/s.

Question: What about the speed of sound ([1]; 323.15 K, w2 = 0.8) of the same compound?
Answer: Its speed of sound is 1608.9 ± 2.6 m/s.

Question: And the speed of sound ([1]; 323.15 K, w2 = 0.9)?
Answer: The speed of sound was 1580.3 ± 2.5 m/s.

Question: What about the mass density ([1]; 323.15 K, w2 = 0.7) of the same compound?
Answer: The mass density was 995.12 ± 0.58 kg/m3.

Question: And the mass density ([1]; 323.15 K, w2 = 0.8)?
Answer: Its mass density is 992.41 ± 0.57 kg/m3.

Question: What about the mass density ([1]; 323.15 K, w2 = 0.9) of the same compound?
Answer: Its mass density is 989.74 ± 0.57 kg/m3.

Question: What about the viscosity ([1]; 323.15 K, w2 = 0.7) of the same compound?
Answer: The viscosity was 1.196 ± 0.029 mPa·s.

Question: And the viscosity ([1]; 323.15 K, w2 = 0.8)?
Answer: Its viscosity is 0.942 ± 0.024 mPa·s.

Question: What about the viscosity ([1]; 323.15 K, w2 = 0.9) of the same compound?
Answer: Its viscosity is 0.73 ± 0.02 mPa·s.

Question: For `NCCO` [2-aminoethan-1-ol], which mass density [2] is on record?
Answer: Its mass density is 1011.98 ± 0.46 kg/m3.
